From US20040248964A1, “Analgesic uses of norketamine and ketamine/norketamine prodrugs” (priority 2002, published 2004)

Experiments:
[1] = Norketamine i.v. drip in a patient with intractable bladder pain, pain level subjectively evaluated by the patient; type: in vivo, human
Experimental: A patient, weighing approximately 60 kg, presents with intractable bladder pain (interstitial ceptitis), which has been diagnosed previously. Pain management in this patient consists of 100 mg Demoral every 3 hours; Dilaudid 2-4 mg every 4 hours; Dalmane 30 mg per day; Duralgesic patches (fentanyl transdermal patches); bladder washes with Pyridium (phenaropyridine HCl), which is a urinary tract analgesic; and belladonna and opiate suppositories. In addition to the pain medication, the patient takes Zanax and Tagamet to alleviate gastric distress, and Compazine (an anti-emetic) to counteract nausea. Gastric distress and nausea in this patient result from the pain medication.
Despite the dosages and range of pain medications used by this patient, satisfactory pain management is not achieved.
A diagnostic pre-sacral, or ilio-hypogastric, nerve block is performed on this patient to alleviate the pain. Unfortunately, the effect of the block is temporary, and the block is associated with significant motor weakness. After the block wears off, the patient states that they are unable to function, as the most mundane activities are exhausting.
Norketamine (10 mg/cc) drip was administered i.v. over one hour, for a total dose of 40 mg norketamine. […] About 1 hour after norketamine infusion is discontinued, the patient reports that the level of pain has increased to about #15, and thereafter rapidly to its previous level. The patient continues to take the other pain medications without effect.

NMDA receptor = settings: cited from earlier work
[2] = cited from earlier work
rats = settings: intravenously or intraspinally; cited from earlier work
[3] = Nasal spray self-administration of norketamine in the same patient

CCCCOC(=O)NC1(c2ccccc2Cl)CCCCC1=O (stereo not drawn)
melting point: 130 to 132 °C

CC(C)OC(=O)NC1(c2ccccc2Cl)CCCCC1=O (stereo not drawn)
melting point: 124 to 126 °C

CCOC(=O)NC1(c2ccccc2Cl)CCCCC1=O (stereo not drawn)
melting point: 112 to 114 °C

NC1(c2ccccc2Cl)CCCCC1=O (stereo not drawn) [Norketamine, 2-(2-chlorophenyl)-2-amino-cyclohexanone]
reduction of the pain level by a factor ([1]; 10 mg/cc drip i.v. over one hour, total dose 40 mg, from #20, subjectively evaluated by the patient): 2 | pain level about 1 hour after norketamine infusion is discontinued ([1]; thereafter rapidly to its previous level): ~15 | pain level after norketamine infusion ([1]; total dose 40 mg i.v. over one hour, level before #20): 10-12 | binding to the NMDA receptor compared with S- or R-ketamine (NMDA receptor): less tightly | anesthetic and analgesic potency relative to ketamine ([2]; speculated): one third | adverse sequelae compared with an equal dose of ketamine (rats): fewer of the adverse sequelae | control of breakthrough pain ([3]; nasal administration): particularly effective | pain management with nasal administration ([3]; nasal spray 100 mg/ml, 16 mg per spray, 1-2 sprays for severe pain): remarkable pain management

CN[C@]1(c2ccccc2Cl)CCCCC1=O [S-ketamine, reference compound]
potency relative to R-ketamine ([2]; in vivo): twice as potent
